Measurements as given in patent US20190350918A1, “PPARy AGONIST FOR TREATMENT OF HUNTINGTON'S DISEASE” (Coherus Biosciences, Inc., priority 2017, published 2019).

Experiments:
[1] = tested on: adiponectin; assay: 14-day study in healthy subjects: serum adiponectin levels; format: in vivo, human
Experimental: A study was conducted to determine the effect of INT131 on serum adiponectin levels. Thirty healthy subjects were randomly selected to receive either placebo, 0.1 mg INT131, 1 mg INT131 or 4 mg INT131 daily for 14 days. To measure adiponectin levels blood was drawn at Days 1, 4, 8 and 14.

[2] = subjects taking INT131 versus pioglitazone; DePaoli, et al. Diabetes Care 2014; cited from earlier work
[3] = tested on: HbA1c; settings: DePaoli, et al. Diabetes Care 2014; cited from earlier work
[4] = tested on: HbA1c; assay: 24-week study in type 2 diabetes subjects: HbA1c levels; format: in vivo, human
[5] = tested on: R6/2 Huntington's mice; assay: R6/2 Huntington's mice: Huntington disease signs and symptoms; format: in vivo, mouse; settings: R6/2 mice; 1 mg/kg, 3 mg/kg, and 6 mg/kg
Experimental: INT-131 is evaluated in R6/2 Huntington's mice. R6/2 mice express mutant human exon 1 of the HTT gene. R6/2 mice develop Huntington phenotypes, which progress over time. These mice display motor and cognitive deficits, cortical cellular degeneration and striatal cellular morphological changes, as well as alterations in cortical and striatal synaptic transmission. In particular, R6/2 mice develop a loss of coordination, tremors, hypokinesis, abnormal gait, neuropathy, and premature death. After mice develop Huntington symptoms, the mice are administered INT-131 or a placebo at a regular dosing interval over a period of time. INT-131 doses include 1 mg/kg, 3 mg/kg, and 6 mg/kg. Huntington disease signs and symptoms are evaluated in each group over the period of time. After mice develop Huntington symptoms, the mice are administered INT-131 or another therapy for treating Huntington's disease at a regular dosing interval over a period of time. INT-131 doses include 1 mg/kg, 3 mg/kg, and 6 mg/kg. Other therapies include those approved for treatment and those in development for treating Huntington's disease.

[6] = tested on: adiponectin; assay: 24-week randomized, double-blind, placebo-controlled study in type 2 diabetes subjects: serum adiponectin levels; format: in vivo, human
Experimental: A randomized, double-blind, placebo-controlled, 24-week study was conducted in which adiponectin levels were measured. […] 367 subjects with type 2 diabetes (TD2)—a disease in which patient adiponectin levels are reduced—were randomly assigned to receive either 0.5, 1, 2 or 3 milligrams (“mg”) of INT131 besylate, 45 mg of pioglitazone or placebo daily for 24 weeks. To measure adiponectin levels blood was drawn at Weeks 0, 2, 6, 12 and 24. At baseline (Week 0) mean adiponectin levels were 1.94 micrograms per milliliter (“μg/mL”). The mean adiponectin levels at baseline and Week 24, and the mean change in adiponectin levels from baseline (Week 0) to Week 24 are disclosed in Table 1, below. The standard deviation for samples tested in each group is listed in (parenthesis). Mean baseline adiponectin values were similar for the treatment groups.

Row | Structure (SMILES) | change in serum adiponectin levels Day 1 to Day 14 and over placebo ([1]; 0.1 mg INT131 daily for 14 days) | change in serum adiponectin levels over placebo and from Day 1 to Day 14 ([1]; 1 mg or 4 mg INT131 daily for 14 days) | side effects compared with pioglitazone [2] | reducing HbA1c levels compared with 45 mg of pioglitazone [3] | HbA1c levels as compared to placebo ([4]; 1, 2, and 3 mg doses of INT131, 24 weeks) | reduction of HbA1c levels compared with 45 mg of pioglitazone ([4]; 2 and 3 mg doses of INT131, 24 weeks) | Huntington's disease symptoms versus placebo [5] | progression and development of Huntington's disease versus placebo [5] | slowing progression or development and treating signs and symptoms of Huntington's disease versus another therapy [5] | adiponectin levels, treatment comparison with pioglitazone 45 mg ([6]; 0.5 mg, 1 mg, and 3 mg doses of INT131, p≤0.0408) | adiponectin levels, treatment comparison with placebo ([6]; 1 mg, 2 mg, and 3 mg doses of INT131, p≤0.0109) | mean change in adiponectin from baseline to Week 24 with LOCF ([6]; 2 mg group) [µg/mL] | mean change in adiponectin from baseline to Week 24 with LOCF ([6]; INT131 0.5 mg group) [µg/mL] | mean change in adiponectin from baseline to Week 24 with LOCF ([6]; INT131 1 mg group) [µg/mL] | mean change in adiponectin from baseline to Week 24 with LOCF ([6]; INT131 3 mg group) [µg/mL] | upregulation of serum adiponectin levels compared with pioglitazone ([6]; INT131 at either 2 or 3 mg versus 45 mg pioglitazone) | mean change in adiponectin from baseline to Week 24 with LOCF ([6]; pioglitazone 45 mg group) [µg/mL]
1 | O=S(=O)(Nc1cc(Cl)c(Oc2cnc3ccccc3c2)c(Cl)c1)c1ccc(Cl)cc1Cl [INT131] | no significant change | significant change | less edema, weight gain, and hemodilution | equally efficacious | statistically significant reduction | at least as well as 45 mg of pioglitazone | reduced Huntington's disease symptoms | slows progression and development | as effective, or more effective | statistically significant | statistically significant | 3.27 | 0.56 | 1.28 | 3.83 | greater upregulation | –
2 | CCc1ccc(CCOc2ccc(CC3SC(=O)NC3=O)cc2)nc1 (centres unmarked) [Pioglitazone, pioglitazone, reference compound] | – | – | – | – | – | – | – | – | – | – | – | – | – | – | – | – | 2.96
